Experimental findings from EP4083217A1, “IN VIVO […] THERAPY FOR THE TREATMENT OF PRIMARY HYP[…] 1” (Centro de Investigaciones Energéticas, Medioambientales y …, priority 2021, dated 2022) are described below.

SMILES strings stand for the structures.

The assay concerns HepG2 cells. Description: Transduction enhancer Cyclosporin H in vitro testing (eGFP positive cells by flow cytometry). It counts as cell-based. The method, then: Due to the important relevance of the target tissue origin, HepG2 cells, a hepatic cell line, were used.
Three days after transduction, the percentage of eGFP positive cells was analysed by Flow Cytometry. All conditions were performed as triple experimental replicates.

Consider `C/C=C/C[C@@H](C)[C@@H](O)[C@H]1C(=O)N[C@@H](CC)C(=O)N(C)CC(=O)N(C)[C@@H](CC(C)C)C(=O)N[C@@H](C(C)C)C(=O)N(C)[C@@H](CC(C)C)C(=O)N[C@@H](C)C(=O)N[C@H](C)C(=O)N(C)[C@@H](CC(C)C)C(=O)N(C)[C@@H](CC(C)C)C(=O)N(C)[C@H](C(C)C)C(=O)N1C` [CsH, Cyclosporin H], for which the “transduction percentage (eGFP positive cells)” value reads like this: (HepG2, LV.ET.eGFP.142-3pT MOI 0.3, 4 µM CsH during transduction) 37.67%; (HepG2, LV.ET.eGFP.142-3pT MOI 0.3, 16 µM CsH during transduction) 51.5%. The “percentage of transduced cells” value (HepG2, LV.ET.eGFP.142-3pT MOI 0.3, 16 µM CsH 16 hours pre-treatment and during transduction) was determined as 31.03%.
